# Values joined by “and” are separate entries in the source; they are usually repeats but may differ in a detail not shown here. Identical values can stand only once. “Also recorded” adds a separate entry of the source.
# Columns and labels:
# 231-BR-HER2 = details: read-out: IC50 for inhibition of 231-BR-HER2 proliferation in vitro; cited from earlier work
# [1] = test system: 231-BR-HER2 lapatinib-treated lines and 231-BR-HER2 non-treated lines; assay: Cell viability; assay type: cell-based, human; details: 8 or 10 μM lapatinib, 72 hours
# [2] = test system: brain metastases of HER2+ breast cancer; details: monotherapy; cited from earlier work
# [3] = 14C-lapatinib distribution after intravenous dosing; assay type: in vivo, mice; details: 10 mg/kg i.v., 30 min
# [4] = female, NuNu, mouse, in vivo
# HER2 = assay: Western blot of HER2 expression in ex vivo cultures; assay type: cell-based, human; details: 100 mg/kg p.o. twice daily for 24 days
# [5] = due to active efflux transport at the BBB; cited from earlier work
# HER2+ brain metastases = details: cited from earlier work
# [6] = cited from earlier work
# [7] = test system: 231-BR-HER2 lapatinib-treated lines and 231-BR-HER2 non-treated lines; assay: Clonogenic assay of ex vivo cultures; assay type: cell-based, human; details: 4 μM lapatinib, stained on day 12
# [8] = mice; cited from earlier work
# [9] = 14C-lapatinib radiochemical integrity in plasma and tissues by HPLC; assay type: in vivo, mice
smiles,measurement,setting,value
"CS(=O)(=O)CCNCc1ccc(-c2ccc3ncnc(Nc4ccc(OCc5cccc(F)c5)c(Cl)c4)c3c2)o1 [lapatinib, N-{3-chloro-4-[(3-fluorobenzyl)oxy]phenyl}-6-[5-({[2-(methylsulfonyl)ethyl]amino}methyl)-2-furyl]-4-quinazolinamine]",IC50,231-BR-HER2,8 µM
same,"Sensitivity of ex vivo cell lines to lapatinib, viability by MTT",[1],sensitive to lapatinib inhibition; also recorded: remain sensitive to lapatinib in vitro
same,Patients achieving an objective response,[2],6%
same,Patients experiencing a >20% reduction in lesion volume,[2],21%
same,Average brain metastasis concentration less than in peripheral tissues,[3],1-2 orders of magnitude
same,Concentration in some brain metastases as % of that in peripheral lesions,[4],~50%
same,Share of brain metastases with elevated 14C-lapatinib delivery,[4],> 85%
same,Calculated % dose to brain,"[4]; po, 100 mg/kg",0.0025%
same,HER2 expression throughout in vivo treatment and ex vivo culture,HER2,maintained
same,Brain uptake as % of plasma,[5],< 10%
same,Reduction in formation/number of large brain metastases,"HER2+ brain metastases; mice, same dose and tumor model",~50% and 50-53%
same,Number of micrometastases,HER2+ brain metastases; mice,no change
same,Extent of phosphorylated HER2 staining within HER2+ brain metastases,HER2+ brain metastases; treatment initiated early,decreased
same,Volume of distribution,[6],9.5 L/kg
same,Inhibitory effect in clonogenic assays,[7],comparable between lapatinib- and vehicle-treated cultures
same,Plasma half-life,[8],4 to 6 h
same,Plasma 14C tracer confirmed as intact 14C-lapatinib,[9]; 30 min after 10 mg/kg i.v.,> 98%
same,Tracer intact in plasma and tissues by HPLC,"[9]; 2 hours after oral administration, 100 mg/kg",> 92%

# Reference: PMC3489161 (Pharmaceutical research, 2011)
